As usually defined, the Ki is the dissociation constant of the complex between target and ligand, obtained from inhibition or displacement. What is called IC50 is the point on the concentration scale where inhibition reaches its midpoint. Lower therefore signals greater potency in that assay. The EC50 is the concentration giving half of the maximal effect.

Assay [1] has as its target influenza virus sialidase (N1) (Influenza A virus, UniProt Q9WAA1). Description: biochemical.
Assay [2] has as its system avian influenza virus H5N1. The following applies: literature value, Li et al. ref. 12; read-out: EC50 value against avian influenza virus H5N1; cited from earlier work.

Where a name gives a salt, the structure may show the parent alone. Read-outs that look alike come from different tables or passages of the source.

influenza virus sialidase (N1), sequence (Q9WAA1 whole entry, looked up): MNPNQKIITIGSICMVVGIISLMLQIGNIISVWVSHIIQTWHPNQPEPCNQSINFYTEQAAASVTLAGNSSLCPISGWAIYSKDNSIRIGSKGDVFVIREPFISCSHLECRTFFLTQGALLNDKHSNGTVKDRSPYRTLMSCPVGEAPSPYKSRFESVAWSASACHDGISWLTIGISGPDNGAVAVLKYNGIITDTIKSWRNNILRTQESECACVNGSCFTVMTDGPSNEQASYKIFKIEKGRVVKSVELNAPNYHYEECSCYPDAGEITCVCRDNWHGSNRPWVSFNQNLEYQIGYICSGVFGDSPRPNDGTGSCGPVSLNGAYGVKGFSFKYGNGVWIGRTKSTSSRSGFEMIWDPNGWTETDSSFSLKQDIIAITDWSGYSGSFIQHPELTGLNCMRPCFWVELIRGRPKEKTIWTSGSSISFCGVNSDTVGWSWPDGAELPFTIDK

`CC(=O)N[C@H]1[C@H]([C@H](O)[C@H](O)CO)OC(C(=O)O)=C[C@@H]1N` [4-amino-4-deoxy-Neu5Ac2en, reference compound]: in assay [1] (read-out: Ki), the Ki came to 10 nM.

Consider `CCC(CC)OC1CC(C(=O)O)=CC(n2cc(C(C)(C)O)nn2)C1NC(C)=O` (centres unmarked) [Compound 3, 4-Acetylamino-5-(1-ethyl-propoxy)-3-[4-(1-hydroxy-1-methyl-ethyl)-[1,2,3]triazol-1-yl]-cyclohex-1-enecarboxylic acid], for which, in assay [1], the Ki amounted to 2000 nM.

On to `CCC(CC)OC1CC(C(=O)O)=CC(n2cc(CCCO)nn2)C1NC(C)=O` (centres unmarked) [Compound 1, 4-Acetylamino-5-(1-ethyl-propoxy)-3-[4-(3-hydroxy-propyl)-[1,2,3]triazol-1-yl]-cyclohex-1-enecarboxylic acid], for which the affinity in assay [1] corresponds to a Ki of 5000 nM.

`CCC(CC)OC1CC(C(=O)O)=CC(n2cc(C3(O)CCCCC3)nn2)C1NC(C)=O` (centres unmarked) [Compound 5, 4-Acetylamino-5-(1-ethyl-propoxy)-3-[4-(1-hydroxy-cyclohexyl)-[1,2,3]triazol-1-yl]-cyclohex-1-enecarboxylic acid]: in assay [1], 48 µM corresponded to half-maximal inhibition (IC50) and the “Inhibitory activity in words” value is “less effective as inhibitors”.

As to `CCC(O)c1cn([C@H]2C=C(C(=O)O)O[C@@H]([C@H](O)[C@H](O)CO)[C@@H]2NC(C)=O)nn1` (some centres unmarked) [formula (B)], the concentration for a half-maximal effect (EC50) in assay [2] was 6.4 µM.

The molecule `CCC(CC)OC1CC(C(=O)O)=CC(N)C1NC(C)=O` (centres unmarked) [Compound 38, 4-Acetylamino-3-amino-5-(1-ethyl-propoxy)-cyclohex-1-enecarboxylic acid, reference compound] yielded a Ki in assay [1] of 20 nM.

With `CC(=O)N[C@H]1[C@H]([C@H](O)[C@H](O)CO)OC(C(=O)O)=C[C@@H]1NC(=N)N` [4-deoxy-4-guanidino-Neu5Ac2en], in assay [2], the 50% effective concentration (EC50) is 2.8 µM.

As to `CCC(CC)OC1CC(C(=O)O)=CC(n2cc(C3(O)CCCC3)nn2)C1NC(C)=O` (centres unmarked) [Compound 6, 4-Acetylamino-5-(1-ethyl-propoxy)-3-[4-(1-hydroxy-cyclopentyl)-[1,2,3]triazol-1-yl]-cyclohex-1-enecarboxylic acid], in assay [1], half-maximal inhibition (IC50) required 110 µM and the “Inhibitory activity in words” value is “less effective as inhibitors”.

In turn, `CCC(CC)OC1CC(C(=O)O)=CC(NC(=N)N)C1NC(C)=O` (centres unmarked) [Compound 39, 4-Acetylamino-5-(1-ethyl-propoxy)-3-guanidino-cyclohex-1-enecarboxylic acid Trifluoroacetate salt] returned an inhibition constant Ki in assay [1] of 4.8 nM.

In the case of `CCC(CC)OC1CC(C(=O)O)=CC(n2cc(C(O)CC)nn2)C1NC(C)=O` (centres unmarked) [Compound 2, 4-Acetylamino-5-(1-ethyl-propoxy)-3-[4-(1-hydroxy-propyl)-[1,2,3]triazol-1-yl]-cyclohex-1-enecarboxylic acid], the inhibitory constant (Ki) in assay [1] turned out to be 700 nM.

Consider “4-Acetylamino-3-[4-((17α)-estra-1,3,5(10)-triene-3,17-dihydroxy-17-yl)-[1,2,3]triazol-1-yl]-5-(1-ethyl-propoxy)-cyclohex-1-enecarboxylic acid L-arginine salt [Compound 44]”, for which, in assay [1] (read-out: Ki), the Ki came to 59000 nM.

As for `CCC(CC)OC1CC(C(=O)O)=CC(n2cc(CCc3ccccc3)nn2)C1NC(C)=O` [Compound 43, 4-Acetylamino-5-(1-ethyl-propoxy)-3-(4-phenethyl-[1,2,3]triazol-1-yl)-cyclohex-1-enecarboxylic acid L-arginine salt], the affinity in assay [1], expressed as Ki, was 12000 nM.

The values above are taken from US20120010254A1 (priority 2008, published 2012).
